Each structure is given as a SMILES string. Calls of active or inactive are those of the source. Where only a bound is given, the exact number is not on record here.

Assay [1] is described as follows: A cytotoxicity screen of small molecule inhibitors of the PhoP region in Salmonella typhi identified in the primary screen. [Related pubchem assays: 1850, 1864, 1985 ]. It counts as functional.
The target of another assay is T1, Aminopeptidase N (Plasmodium falciparum FcB1/Columbia, UniProt O96935).
T1 sequence (O96935 whole entry): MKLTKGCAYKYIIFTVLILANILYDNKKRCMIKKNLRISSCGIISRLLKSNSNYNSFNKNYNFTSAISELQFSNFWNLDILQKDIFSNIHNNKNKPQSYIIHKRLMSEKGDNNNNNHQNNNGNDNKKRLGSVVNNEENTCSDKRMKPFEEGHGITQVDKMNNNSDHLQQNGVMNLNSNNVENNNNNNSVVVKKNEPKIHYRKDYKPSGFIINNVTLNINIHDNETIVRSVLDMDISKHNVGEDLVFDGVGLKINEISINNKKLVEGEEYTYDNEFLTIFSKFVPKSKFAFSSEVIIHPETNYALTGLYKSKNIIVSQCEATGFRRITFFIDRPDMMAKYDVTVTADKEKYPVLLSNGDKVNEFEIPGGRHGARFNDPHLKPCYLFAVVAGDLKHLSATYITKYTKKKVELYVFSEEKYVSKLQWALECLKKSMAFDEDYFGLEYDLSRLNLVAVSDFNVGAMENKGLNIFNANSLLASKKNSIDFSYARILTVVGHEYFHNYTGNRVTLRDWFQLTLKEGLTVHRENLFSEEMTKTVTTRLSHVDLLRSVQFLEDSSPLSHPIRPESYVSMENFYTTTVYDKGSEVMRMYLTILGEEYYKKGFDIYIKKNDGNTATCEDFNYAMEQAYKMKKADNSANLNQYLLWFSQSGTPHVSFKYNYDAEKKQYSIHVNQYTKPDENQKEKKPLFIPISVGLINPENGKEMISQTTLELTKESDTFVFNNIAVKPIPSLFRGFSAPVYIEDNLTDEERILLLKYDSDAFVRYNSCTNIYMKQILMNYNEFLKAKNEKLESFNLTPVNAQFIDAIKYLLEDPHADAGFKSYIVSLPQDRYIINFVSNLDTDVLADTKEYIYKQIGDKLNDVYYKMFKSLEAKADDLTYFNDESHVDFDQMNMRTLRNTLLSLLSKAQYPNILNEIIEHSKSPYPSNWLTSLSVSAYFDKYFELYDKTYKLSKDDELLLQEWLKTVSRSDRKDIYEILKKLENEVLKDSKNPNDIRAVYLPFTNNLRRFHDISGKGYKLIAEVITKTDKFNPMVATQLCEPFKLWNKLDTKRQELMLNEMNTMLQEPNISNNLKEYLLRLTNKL
The assay can be described thus: malaria alanyl aminopeptidase activity blockers – biochemical, fluorogenic H-Leu-NHMec substrate, 1536-well (AID 1445). More on the design: species or system Plasmodium falciparum 3D7, 3D7.

Another assay has as its target Estrogen receptor (Homo sapiens, UniProt P03372).
Assay [2] is described as follows: A High Throughput Confirmatory Assay used to Identify Novel Compounds that Inhibit Mycobacterium Tuberculosis in the absence of Glycerol. The assay is classed as functional.
A further assay deals with Estrogen receptor beta (Homo sapiens, UniProt Q92731).
Assay [3] can be described thus: Luminescence Cell-Based Dose Response HTS to Identify Activators of Luciferase Translation or Activity in H4 […] Cells. [Related pubchem assays: 1829 (Project Summary), 1814 (Primary HTS)]. The assay is classed as functional.
Assay [4] can be described thus: Luminescence Cell-Based Dose Response to Identify Activators of 5'UTR Stem-Loop Driven Prion Protein mRNA Translation in H4-C Neuroglioblastoma Cells. [Related pubchem assays: 1829 (Project Summary), 1814 (Primary HTS)]. The assay is classed as functional.
Assay [5] can be described thus: Luminescence Cell-Based Dose Response to Identify Activators of Luciferase Translation or Activity in H4-C Neuroglioblastoma Cells. [Related pubchem assays: 1829 (Project Summary), 1814 (Primary HTS)]. It counts as functional.
Assay [6] can be described thus: Luminescence Cell-Based Dose Confirmation to Identify Activators of 5'UTR Stem-Loop Driven Alpha-Synuclein mRNA Translation in H4 Neuroglioblastoma Cells. [Related pubchem assays: 1829 (Project Summary), 1814 (Primary HTS)]. It counts as functional.
Assay [7] deals with Mitogen-activated protein kinase 10 (Homo sapiens, UniProt P53779). The assay can be described thus: Dose response biochemical screening assay for inhibitors of c-Jun N-Terminal Kinase 3 (JNK3). [Related pubchem assays: 746 ].
A further assay concerns the target Mucolipin-3 (Homo sapiens, UniProt Q8TDD5). The assay can be described thus: Dose response cell-based high-throughput screening assay for agonists of the transient receptor potential channel ML3 (TRPML3). [Related pubchem assays: 1526, 1424, 1448 ]. It counts as functional.
The target in the next assay is Ion channel NompC (Danio rerio, UniProt Q7T1G6). The assay can be described thus: Fluorescence counterscreen assay for TRPML3 agonists: dose response cell-based high-throughput screening assay to identify agonists of the transient receptor potential channel N1 (TRPN1). [Related pubchem assays: 1526, 1424, 1448 ]. The assay is classed as functional. A general note: A counterscreen serves to expose hits that act by an unwanted route or on another target.

Assay [8] in a line: cells.
Assay [9] is described as follows: NIH3T3 cell viability loss – ATP luminescence, mouse fibroblasts, counter-screen, dose response (AID 2010).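 Note: cells exposed to compound for about 90 hours before reading.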 It counts as functional, cell-based.
Assay [10] in a line: Trypanosoma cruzi growth suppression in host cells – NIH3T3 host cells, beta-gal luminescence, confirmation (AID 2044).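 Note: intracellular parasites grown in NIH/3T3 mouse fibroblasts as host cells; luminescent beta-galactosidase reporter signal from transgenic T. cruzi replicating inside host cells; inhibitors lower the luminescence signal.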 It counts as functional, cell-based.
Assay [11] deals with Transitional endoplasmic reticulum ATPase (Homo sapiens, UniProt P55072). The assay can be described thus: p97 ATPase inhibitors, dose response, biochemical (AID 1534).
The target of assay [12] is Transitional endoplasmic reticulum ATPase (Homo sapiens, UniProt P55072, C522A). The assay can be described thus: C522A mutant p97 ATPase inhibitors, dose response, counter-screen for p97 inhibitor project, biochemical, luminescence (AID 1544).
A short description of assay [13]: cells. The assay is classed as functional, cell-based.
Assay [14] addresses T2, Trace amine-associated receptor 1 (Homo sapiens, UniProt Q96RJ0).
T2 sequence (Q96RJ0 whole entry): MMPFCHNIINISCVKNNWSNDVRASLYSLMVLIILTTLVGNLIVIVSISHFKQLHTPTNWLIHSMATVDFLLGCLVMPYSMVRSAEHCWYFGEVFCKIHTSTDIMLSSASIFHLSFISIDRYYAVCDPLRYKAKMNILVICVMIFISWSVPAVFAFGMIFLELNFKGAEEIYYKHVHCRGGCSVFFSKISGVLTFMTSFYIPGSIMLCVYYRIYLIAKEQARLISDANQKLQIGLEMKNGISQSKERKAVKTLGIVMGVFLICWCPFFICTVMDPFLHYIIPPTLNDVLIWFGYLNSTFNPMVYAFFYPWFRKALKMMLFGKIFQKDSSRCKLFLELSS
The assay can be described thus: Fluorescence-based cell-based high throughput dose response assay to identify agonists of the human trace amine associated receptor 1 (TAAR1). It counts as functional.

For assay [15], the target named is T2, Trace amine-associated receptor 1. The assay can be described thus: Counterscreen for agonists of the human trace amine associated receptor 1 (hTAAR1): Fluorescence-based cell-based high throughput dose response assay to identify hTAAR1 agonist that also desensitize TAAR1 receptor response. The assay is classed as functional.
Assay [16] is described as follows: decrease of insulin promoter-GFP reporter – imaging, high-content screening, mouse beta cells (AID 1628). It counts as functional. Particulars: MIN6.
Another assay deals with T3, Caspase-6 (Homo sapiens, UniProt P55212).
T3 sequence (P55212 whole entry): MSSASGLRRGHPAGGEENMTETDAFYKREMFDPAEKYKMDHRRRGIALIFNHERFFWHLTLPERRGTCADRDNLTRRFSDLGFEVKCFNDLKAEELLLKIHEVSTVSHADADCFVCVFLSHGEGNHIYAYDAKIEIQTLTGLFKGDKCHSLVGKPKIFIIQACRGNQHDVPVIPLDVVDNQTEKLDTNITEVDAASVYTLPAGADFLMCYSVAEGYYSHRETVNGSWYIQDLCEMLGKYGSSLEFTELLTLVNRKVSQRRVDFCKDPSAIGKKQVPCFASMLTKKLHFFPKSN
The experiment in a line: inhibition of CASP6 peptide cleavage – biochemical, VEID-R110 fluorescence, cherry-pick, dose response (AID 720632).

Assay [17] in a line: cells. It counts as functional, cell-based. The source holds these as a separate data set.
Assay [18] deals with Induced myeloid leukemia cell differentiation protein Mcl-1 (Homo sapiens, UniProt Q07820). The assay is classed as functional.
Assay [19] deals with T4, Rac GTPase-activating protein 1 (Homo sapiens, UniProt Q9H0H5).
T4 sequence (Q9H0H5 whole entry): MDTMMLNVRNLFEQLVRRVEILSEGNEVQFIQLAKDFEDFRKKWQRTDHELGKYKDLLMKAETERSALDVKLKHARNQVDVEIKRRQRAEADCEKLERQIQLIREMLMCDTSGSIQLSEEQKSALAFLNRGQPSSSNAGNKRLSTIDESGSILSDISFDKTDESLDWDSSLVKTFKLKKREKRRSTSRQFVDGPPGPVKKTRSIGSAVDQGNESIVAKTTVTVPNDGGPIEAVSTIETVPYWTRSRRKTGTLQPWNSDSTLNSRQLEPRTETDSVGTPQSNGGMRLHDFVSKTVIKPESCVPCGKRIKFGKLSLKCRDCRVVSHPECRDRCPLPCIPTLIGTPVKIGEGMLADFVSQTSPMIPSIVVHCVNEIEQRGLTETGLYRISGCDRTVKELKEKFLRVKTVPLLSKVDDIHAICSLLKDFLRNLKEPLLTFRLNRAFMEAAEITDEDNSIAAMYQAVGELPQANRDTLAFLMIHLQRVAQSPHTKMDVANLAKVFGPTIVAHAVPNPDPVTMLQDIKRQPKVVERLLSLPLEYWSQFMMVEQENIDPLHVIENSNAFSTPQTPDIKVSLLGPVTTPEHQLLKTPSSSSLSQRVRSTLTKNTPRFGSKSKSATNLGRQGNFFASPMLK
The assay can be described thus: blockers of MgcRacGAP-driven Rac1 GTP hydrolysis – biochemical, ADP Hunter fluorescence, primary and confirmatory, confirmation (AID 624330). The assay is classed as functional.

Assay [20] can be described thus: MIN6 cell viability loss – mouse insulinoma, cytotoxicity control, dose response (AID 2122).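 Note: confirmatory high-throughput counterscreen run to flag cytotoxic compounds.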 The assay is classed as functional.
Assay [21] is described as follows: NIH-3T3 fibroblast cytotoxicity, dose response, cytotoxicity control, cell-based, fluorescence, Alamar Blue, secondary assay (AID 2327).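 Note: NIH-3T3 mouse fibroblasts cultured with fluconazole at 8 µg/mL.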 It counts as functional.
Assay [22] in a line: viability loss in HeLa cells – cytotoxicity control for MgcRacGAP inhibitor project, dose response (AID 624300). The assay is classed as functional.

Transitional endoplasmic reticulum ATPase (Homo sapiens, UniProt P55072), sequence (P55072 whole entry): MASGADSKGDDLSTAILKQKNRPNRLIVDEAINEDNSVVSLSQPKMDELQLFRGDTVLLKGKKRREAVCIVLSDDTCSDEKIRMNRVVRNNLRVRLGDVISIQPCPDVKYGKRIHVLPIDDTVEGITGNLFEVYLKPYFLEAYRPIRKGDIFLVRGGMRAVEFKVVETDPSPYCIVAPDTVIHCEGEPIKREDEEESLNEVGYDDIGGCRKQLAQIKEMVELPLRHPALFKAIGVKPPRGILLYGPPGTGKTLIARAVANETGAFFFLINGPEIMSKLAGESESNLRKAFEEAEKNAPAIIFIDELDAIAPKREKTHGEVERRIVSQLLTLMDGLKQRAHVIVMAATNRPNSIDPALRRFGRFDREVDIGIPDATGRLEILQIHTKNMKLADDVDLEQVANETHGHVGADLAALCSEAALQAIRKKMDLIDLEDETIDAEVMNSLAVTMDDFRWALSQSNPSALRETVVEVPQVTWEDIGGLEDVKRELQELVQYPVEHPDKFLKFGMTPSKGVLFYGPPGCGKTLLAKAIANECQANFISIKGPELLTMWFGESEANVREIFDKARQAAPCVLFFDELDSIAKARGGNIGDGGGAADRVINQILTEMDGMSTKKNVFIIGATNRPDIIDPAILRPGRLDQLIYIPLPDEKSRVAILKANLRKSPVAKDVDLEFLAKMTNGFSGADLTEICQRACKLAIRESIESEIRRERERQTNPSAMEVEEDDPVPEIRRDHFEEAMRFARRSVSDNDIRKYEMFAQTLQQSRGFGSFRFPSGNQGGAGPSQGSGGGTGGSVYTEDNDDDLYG
Transitional endoplasmic reticulum ATPase (Homo sapiens, UniProt P55072, C522A), sequence (P55072 2-806 C522A limits assumed): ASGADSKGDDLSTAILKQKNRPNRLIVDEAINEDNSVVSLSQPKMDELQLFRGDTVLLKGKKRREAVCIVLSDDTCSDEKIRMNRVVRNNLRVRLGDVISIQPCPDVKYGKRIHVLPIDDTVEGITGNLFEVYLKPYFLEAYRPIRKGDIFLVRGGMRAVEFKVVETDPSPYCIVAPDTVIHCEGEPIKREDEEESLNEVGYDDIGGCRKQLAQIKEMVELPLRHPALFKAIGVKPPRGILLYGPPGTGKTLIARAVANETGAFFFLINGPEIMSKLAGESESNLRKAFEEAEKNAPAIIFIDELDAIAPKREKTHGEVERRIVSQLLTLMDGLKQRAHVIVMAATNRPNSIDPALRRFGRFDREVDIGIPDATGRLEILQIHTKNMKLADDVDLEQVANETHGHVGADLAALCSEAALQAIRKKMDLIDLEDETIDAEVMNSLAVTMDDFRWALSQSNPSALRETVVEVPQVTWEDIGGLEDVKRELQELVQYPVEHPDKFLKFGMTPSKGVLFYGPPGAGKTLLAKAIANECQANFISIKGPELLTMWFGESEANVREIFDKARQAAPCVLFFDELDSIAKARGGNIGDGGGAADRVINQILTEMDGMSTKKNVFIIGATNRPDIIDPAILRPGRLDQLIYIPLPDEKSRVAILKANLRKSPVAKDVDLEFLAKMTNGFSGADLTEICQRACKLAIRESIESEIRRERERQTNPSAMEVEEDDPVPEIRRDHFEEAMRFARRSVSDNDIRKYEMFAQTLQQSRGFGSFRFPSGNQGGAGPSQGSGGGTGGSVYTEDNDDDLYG
Mucolipin-3, sequence (Q8TDD5 whole entry): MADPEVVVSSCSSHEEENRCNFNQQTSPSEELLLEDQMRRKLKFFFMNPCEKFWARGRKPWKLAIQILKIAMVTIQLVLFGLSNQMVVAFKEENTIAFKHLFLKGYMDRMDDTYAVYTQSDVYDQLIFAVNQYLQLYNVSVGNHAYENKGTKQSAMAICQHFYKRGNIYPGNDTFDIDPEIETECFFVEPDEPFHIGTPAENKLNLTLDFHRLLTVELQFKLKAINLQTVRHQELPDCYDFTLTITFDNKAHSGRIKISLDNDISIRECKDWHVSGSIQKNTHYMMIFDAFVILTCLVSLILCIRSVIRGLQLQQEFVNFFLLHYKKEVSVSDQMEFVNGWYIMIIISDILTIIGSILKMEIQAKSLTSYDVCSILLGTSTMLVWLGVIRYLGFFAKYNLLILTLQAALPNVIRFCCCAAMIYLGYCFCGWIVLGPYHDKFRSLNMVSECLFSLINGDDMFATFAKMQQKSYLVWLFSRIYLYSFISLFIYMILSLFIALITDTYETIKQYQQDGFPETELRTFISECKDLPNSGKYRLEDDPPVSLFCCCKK
Ion channel NompC, sequence (Q7T1G6 whole entry): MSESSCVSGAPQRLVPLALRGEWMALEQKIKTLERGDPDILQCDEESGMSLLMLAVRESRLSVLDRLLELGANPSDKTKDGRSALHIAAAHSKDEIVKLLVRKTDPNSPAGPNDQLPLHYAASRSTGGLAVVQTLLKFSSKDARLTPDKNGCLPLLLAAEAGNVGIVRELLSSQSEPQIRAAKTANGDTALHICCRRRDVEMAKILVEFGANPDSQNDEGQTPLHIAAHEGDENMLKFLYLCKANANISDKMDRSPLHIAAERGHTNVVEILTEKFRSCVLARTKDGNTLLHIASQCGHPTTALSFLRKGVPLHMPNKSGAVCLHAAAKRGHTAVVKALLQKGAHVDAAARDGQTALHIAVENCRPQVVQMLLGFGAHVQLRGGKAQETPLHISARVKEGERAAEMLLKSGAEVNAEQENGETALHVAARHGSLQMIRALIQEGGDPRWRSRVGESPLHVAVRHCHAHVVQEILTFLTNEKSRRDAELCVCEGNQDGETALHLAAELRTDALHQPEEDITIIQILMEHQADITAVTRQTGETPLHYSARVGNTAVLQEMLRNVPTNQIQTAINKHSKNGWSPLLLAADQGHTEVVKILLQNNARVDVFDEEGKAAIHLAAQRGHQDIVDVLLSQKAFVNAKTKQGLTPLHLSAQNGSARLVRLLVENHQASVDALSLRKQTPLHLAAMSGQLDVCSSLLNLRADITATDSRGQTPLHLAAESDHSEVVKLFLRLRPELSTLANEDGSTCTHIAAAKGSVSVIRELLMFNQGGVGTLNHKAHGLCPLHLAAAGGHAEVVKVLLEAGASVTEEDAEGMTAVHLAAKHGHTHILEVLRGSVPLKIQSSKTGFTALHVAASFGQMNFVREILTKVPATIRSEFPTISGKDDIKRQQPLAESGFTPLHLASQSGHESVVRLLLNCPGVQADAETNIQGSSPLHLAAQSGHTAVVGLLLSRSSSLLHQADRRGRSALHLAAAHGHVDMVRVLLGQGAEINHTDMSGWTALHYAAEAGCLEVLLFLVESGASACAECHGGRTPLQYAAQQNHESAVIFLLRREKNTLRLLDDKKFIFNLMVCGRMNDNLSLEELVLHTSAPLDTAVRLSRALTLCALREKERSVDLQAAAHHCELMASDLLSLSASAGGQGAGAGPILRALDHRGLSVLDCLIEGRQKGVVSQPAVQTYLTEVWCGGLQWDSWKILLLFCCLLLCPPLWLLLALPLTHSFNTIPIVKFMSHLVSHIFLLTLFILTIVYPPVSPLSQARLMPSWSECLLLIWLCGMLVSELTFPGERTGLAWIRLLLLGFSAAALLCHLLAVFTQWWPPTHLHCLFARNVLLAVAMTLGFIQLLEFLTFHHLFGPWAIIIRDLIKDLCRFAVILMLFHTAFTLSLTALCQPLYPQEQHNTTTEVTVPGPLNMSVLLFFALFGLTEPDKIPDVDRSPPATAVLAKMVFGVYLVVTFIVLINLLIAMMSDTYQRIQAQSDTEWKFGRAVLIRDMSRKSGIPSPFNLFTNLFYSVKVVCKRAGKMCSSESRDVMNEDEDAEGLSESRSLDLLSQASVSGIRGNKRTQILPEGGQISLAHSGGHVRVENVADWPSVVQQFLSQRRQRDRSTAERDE
Induced myeloid leukemia cell differentiation protein Mcl-1, sequence (Q07820 whole entry): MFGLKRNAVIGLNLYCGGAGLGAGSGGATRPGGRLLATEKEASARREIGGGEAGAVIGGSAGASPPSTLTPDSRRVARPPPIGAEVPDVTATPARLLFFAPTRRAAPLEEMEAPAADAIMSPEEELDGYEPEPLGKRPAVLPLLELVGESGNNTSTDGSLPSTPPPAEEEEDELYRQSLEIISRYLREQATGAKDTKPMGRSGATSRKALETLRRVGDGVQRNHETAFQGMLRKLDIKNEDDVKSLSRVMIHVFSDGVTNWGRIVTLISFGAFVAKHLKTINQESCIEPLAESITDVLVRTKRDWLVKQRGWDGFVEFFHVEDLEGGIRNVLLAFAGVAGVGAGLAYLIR
Mitogen-activated protein kinase 10, sequence (P53779 whole entry): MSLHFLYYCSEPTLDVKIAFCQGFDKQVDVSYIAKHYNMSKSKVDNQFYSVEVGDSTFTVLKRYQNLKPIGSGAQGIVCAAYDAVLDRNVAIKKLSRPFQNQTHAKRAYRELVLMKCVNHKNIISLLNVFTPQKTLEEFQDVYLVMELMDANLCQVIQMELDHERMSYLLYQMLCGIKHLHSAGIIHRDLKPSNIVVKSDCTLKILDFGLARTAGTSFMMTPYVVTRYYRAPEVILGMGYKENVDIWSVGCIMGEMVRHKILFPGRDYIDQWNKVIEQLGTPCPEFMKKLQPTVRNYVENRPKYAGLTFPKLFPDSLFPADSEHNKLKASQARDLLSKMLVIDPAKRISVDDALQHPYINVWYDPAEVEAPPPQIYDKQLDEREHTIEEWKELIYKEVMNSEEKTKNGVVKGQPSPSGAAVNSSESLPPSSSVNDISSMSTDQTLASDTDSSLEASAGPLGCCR

The term EC50 denotes the concentration at which the effect is half-maximal. For `O=C(N/N=C/c1c(Cl)nc2ccccn2c1=O)c1cccnc1`, in [1], the EC50 was > 50 µM (active).

In general, IC50 refers to the midpoint of a concentration-inhibition curve. As to `O=C1CC(c2ccco2)CC(O)=C1/C=N/c1cc(Cl)ccc1O` (stereo not drawn), the results for the IC50 on Aminopeptidase N and against Estrogen receptor were 5.58 µM (active) and 43.8 µM (not active), respectively.

Regarding `Cc1ccc(NC(=O)c2sccc2-n2cccc2)c(C)c1`, the IC50 in [2] is > 100 µM (active).

For `COc1ccc(N2CC(C(=O)O)CC2=O)cc1` (stereo not drawn), the half-inhibitory concentration (IC50) against Estrogen receptor beta is reported as > 50 µM (not active).

With `O=S1(=O)CCC(/N=C/c2ccc(-c3ccc(Cl)cc3)o2)C1` (stereo not drawn), the IC50 in assay [2] is > 100 µM (active).

As to `CSc1nsc(N/N=C/c2ccc3c(c2)OCO3)c1C#N`, the EC50 is < 0.1 µM (inconclusive) in assay [3], 0.314 µM (active) in assay [4], 0.303 µM (active) in assay [5] and 0.415 µM (active) in assay [6].

With `O=C(CCn1cnc2ccccc2c1=O)Nc1ccc(S(=O)(=O)N2CCCC2)cc1`, the IC50 in assay [7] is reported as 38.2 µM (not active).

In the case of `COc1cc(S(=O)(=O)N2CCCCCC2)ccc1Cl`, the results for the EC50 at Mucolipin-3 and at Ion channel NompC were 1.9 µM (active) and > 29.9 µM (not active), respectively.

For `Cc1ccc2c(CN3CCN(CCO)CC3)cc(=O)oc2c1C`, the EC50 in “cells [8]” is 0.019 µM (active); in [9] it was > 60 µM (not active); in assay [10] it was < 0.1 µM (active).

As to `CCN(CC)C(=O)CC1(c2ccccc2OC)CCOC(C(C)C)C1` (stereo not drawn), the EC50 on Mucolipin-3 was 6.96 µM (active); at Ion channel NompC, > 29.9 µM (not active).

Consider `COc1ccc(-c2cnc(NCc3cc4c(cc3[N+](=O)[O-])OCO4)n2C)cc1`, for which the EC50 in assay [1] was > 50 µM (active).

With `CSC1=NSC2=NC(=O)/C(=C\c3c(C)[nH]c4ccccc34)C(=N)N12`, the IC50 in assay [11] is recorded as 21.7 µM (not active); in [12] it was > 50 µM (not active).

Usually AC50 stands for the concentration giving half of the maximal activity seen. For orientation: CC50 means the concentration giving 50% cytotoxicity. `Oc1ccc(/C=N/Nc2ccnc3cc(Cl)ccc23)cc1O`: the IC50 in the assay “cells [13]” was > 29.9 µM (inactive); in assay [15] it was 2.47 µM (active); in assay [16], 3.02 µM (active); in assay [11], 36.5 µM (not active); in assay [12] it was > 50 µM (not active); in assay [18] it was 4.73 µM (active). Further, the IC50 in assay [19] is 30 µM (active); in assay [20], 6.19 µM (active). For the same molecule, the EC50 is 0.498 µM (active) in assay [14], > 29.9 µM (inactive) in “cells [17]” and 7.32 µM (active) in [21]. For the same molecule, the concentration at half-maximal activity (AC50) at Caspase-6 was 1.61 µM (active). In addition, the CC50 in assay [22] was 43.5 µM (active).

For the molecule `COc1ccc(-c2ccc(-c3nnn(CC(C)=O)n3)cc2)cc1`, the EC50 in assay [3] is < 0.1 µM (inconclusive); in [4], 0.521 µM (active); in assay [5] it was 0.257 µM (active); in [6], 0.364 µM (active).
